# In paper PMC8227162 (Molecules, 2021):
# pIC50: −log10 of the molar value. “Also recorded” adds a separate entry of the source. Structures can show the parent of a compound that is named as a salt.
# Legend:
# [1] = tested on: MDA-MB-231 cells; assay: SRB cytotoxicity assay, MDA-MB-231 cells; format: cell-based; conditions: Homo sapiens, 48 h incubation (Figure 3 legend: 72 h)
# Method: (§1) MDA-MB-231, MDA-MB-468, 4T1, and MCF7 cell lines were purchased from American Type Culture Collection (ATCC) (Manassas, VA, USA). RPMI medium supplemented with 5% fetal bovine serum (FBS) was used to culture the cell lines while being maintained in a humidified atmosphere at 37 °C, 5% CO2.
# (§2) Cytotoxicity was assessed after 48 h incubation using sulforhodamine B (SRB) assay as described previously. Cells were fixed using 10% trichloroacetic acid and stained with SRB. The cytotoxicity experiments were performed in triplicate (n = 3). The 50% growth inhibition (IC50) was then assessed by using SRB assay after 48 h incubation. Data are represented as the mean ± SD of three independent experiments of each cell line.
# [2] = tested on: MDA-MB-468 cells; assay: SRB cytotoxicity assay, MDA-MB-468 cells; format: cell-based; conditions: Homo sapiens, 48 h incubation (Figure 3 legend: 72 h)
# Method: as §1, §2
# [3] = tested on: 4T1 cells; assay: SRB cytotoxicity assay, 4T1 cells; format: cell-based, murine; conditions: Mus musculus, 48 h incubation (Figure 3 legend: 72 h)
# Method: as §1, §2
# [4] = tested on: MCF7 cells; assay: SRB cytotoxicity assay, MCF7 cells; format: cell-based; conditions: Homo sapiens, 48 h incubation (Figure 3 legend: 72 h)
# Method: as §1, §2
# [5] = tested on: MDA-MB-231, MDA-MB-468, 4T1, and MCF7 cells; assay: SRB cytotoxicity assay, all four breast cancer cell lines; format: cell-based; conditions: over the four breast cancer cell lines; read-out: IC50 span over all treatments
# Method: as §1, §2
# [6] = tested on: 4T1 tumors; assay: In vivo antitumor effects in 4T1 tumor-bearing Balb/c mice; conditions: 3 mg/kg (TFA equivalent) IV, 9-day treatment
# Method: Female Balb/c mice (6–12 weeks old, mean weight = 20–25 g) were supplied by the Laboratory Animal Care Facility of the Arabian Gulf University (AGU), Bahrain. […] All animal experiments were performed based on the rules and regulations of the Arabian Gulf University Animal Care Policy and approved by the Research and Ethics Committee, REC Approval No: G-E001-PI-12/16.
# To propagate the tumor, female Balb/c mice (n = 3) were injected with one million 4T1 mammary carcinoma cells bilaterally (right and left side) on the flanks. The tumor was then collected and cut down into small pieces with an average size of 1–3 mm^3 in sterile PBS to sustain tumor viability. Following this, 5 mice of each group were shaved, anesthetized, and inoculated with one small piece of the 4T1 tumor tissue subcutaneously. […] The first day of drug administration was set as Day 0. Tumor volume was measured by a manual caliber, and the volume was estimated by using the formula:V (mm^3) = ((transverse section (W)^2 × longitudinal cross section (L))/2)
# Tumor volumes were normalized by using the initial tumor volume and represented as the mean ± standard error of the mean (SEM). Additionally, the body weight of mice was measured every day and normalized daily for 9 days.
# [7] = tested on: murine bone marrow cells; set-up: method as in PMID 12110316; conditions: cited from earlier work
smiles,measurement,setting,value
"COc1cc2cc(C(=O)N3CC(CCl)c4c3cc(O)c3ccoc43)[nH]c2c(OC)c1OC (stereo not shown) [TFA, tafuramycin A]",pIC50,[1],8.34
same,pIC50,[2],7.74
same,pIC50,[3],8.23
same,pIC50,[4],8.34
same,pIC50,[5],7.69 to 8.34
same,Body weight changes,[6],not associated with any statistically significant weight loss; also recorded: no significant weight loss
same,Toxicity against murine bone marrow cells,[7],only mild toxicity
